Data taken from patent US20060018921A1, “Histone deacetylase inhibitors and cognitive applications” (priority 2004, published 2006).
Entries after “also recorded” stand apart in the source; their conditions may differ. Starred links: 1 amine or outer side, 2 acyl side, 3 side chain; linkers in the order of their positions; H or OH if unused. Positions of bridges follow the written chain, without caps; N, C: chain ends. Non-standard residues stand in square brackets, D forms with d. Residues, ends and D or L forms follow the SMILES beside them. Chains are numbered I, II in the order given. Actinocin(9to1) = Cc1c2oc3c(C)ccc(C(=O)[*:1])c3nc-2c(C(=O)[*:2])c(N)c1=O; NMeV = CN[C@H](C(=O)O)C(C)C; Sar = CNCC(=O)O

Key:
ERK2 = experiment: P-ERK2 western blot, acute hippocampal slices, area CA1; conditions: for levels of P-ERK2: slices treated 1 h, FSK 50 μM with 100 μM Ro20-1724, U0126 20 μM, 4αP 3 μM, dFSK 50 μM with 100 μM Ro20-1724, TSA; for levels of P-ERK2 / effect of PDA on P-ERK2 after pretreatment with MEK inhibitor: PDA 3 μM; for levels of P-ERK2 / effect of NMDA on P-ERK2 after pretreatment with MEK inhibitor / effect of FSK on P-ERK2 after pretreatment with MEK inhibitor / effect of PDA on P-ERK2 after pretreatment with MEK inhibitor: PD98059 50 μM; for effect of NMDA on P-ERK2 after pretreatment with MEK inhibitor / effect of FSK on P-ERK2 after pretreatment with MEK inhibitor / effect of PDA on P-ERK2 after pretreatment with MEK inhibitor: U0126 20 μM; for effect of NMDA on P-ERK2 after pretreatment with MEK inhibitor: 100 μM NMDA 10 min; for effect of FSK on P-ERK2 after pretreatment with MEK inhibitor: FSK 50 μM with 100 μM Ro20-1724
ERK1 = experiment: P-ERK1 western blot, acute hippocampal slices, area CA1; conditions: slices treated 1 h; data not shown
histone H3 (Lys14) = experiment: Acetylation of histone H3, acute hippocampal slices, area CA1; conditions: for histone H3 acetylation: slices treated 1 h, FSK 50 μM with 100 μM Ro20-1724, 4αP 3 μM, dFSK 50 μM with 100 μM Ro20-1724, U0126 20 μM, TSA 1.65 μM; for histone H3 acetylation / effect of PDA on histone H3 acetylation after pretreatment with MEK inhibitor: PDA 3 μM; for histone H3 acetylation / effect of NMDA on acetylation of histone H3 after pretreatment with MEK inhibitor / effect of FSK on histone H3 acetylation after pretreatment with MEK inhibitor / effect of PDA on histone H3 acetylation after pretreatment with MEK inhibitor: PD98059 50 μM; for effect of NMDA on acetylation of histone H3 after pretreatment with MEK inhibitor / effect of FSK on histone H3 acetylation after pretreatment with MEK inhibitor / effect of PDA on histone H3 acetylation after pretreatment with MEK inhibitor: U0126 20 μM; for effect of NMDA on acetylation of histone H3 after pretreatment with MEK inhibitor: 100 μM NMDA 10 min; for effect of FSK on histone H3 acetylation after pretreatment with MEK inhibitor: FSK 50 μM with 100 μM Ro20-1724
[1] = test system: Schaffer-collateral synapses; conditions: previous studies, Nguyen et al., 1994; cited from earlier work
[2] = test system: histone H4 (Lys5/Lys8/Lys12/Lys16); experiment: Acetylation of histone H4, acute hippocampal slices, area CA1
[3] = test system: Schaffer-collateral synapses; experiment: Slice electrophysiology, basal synaptic transmission (baseline fEPSP, input/output, paired-pulse facilitation, tetanus depolarization); type: cell-based, Sprague-Dawley rats; conditions: sodium butyrate for 20 min vs vehicle
Passive avoidance task = type: in vivo, Sprague-Dawley rats
Experimental: The effect of the exemplary histone deacetylase inhibitor sodium butyrate (NaB) on the exemplary hippocampus-dependent long-term memory paradigm of passive avoidance was determined. In the passive avoidance task, animals associate a dark chamber with an aversive stimulus. In the passive avoidance task, animals are placed into the lighted side of a 2-chamber shuttle box (Med Associates). An open doorway in the middle of the shuttle box leads to a dark side. Animals are allowed to move into the dark side of the chamber, upon which time the door is closed and animals are allowed to explore the dark side for 5 sec prior to receiving a brief electric shock (2 sec, 0.5 mA). Animals are given an additional 5 sec of exploration time prior to removal from the shuttle box. Latency to enter the dark side of the shuttle box is recorded for all experimental animals during the training day. Passive avoidance memory is assessed by measuring latency to enter the dark side of the shuttle box, minus the latency to enter the dark side on the training day. Passive avoidance memory was only tested once from each animal to eliminate the effect of extinction. NaB (1.2 g/kg) was administered 45 min prior to passive avoidance training.

[4] = Novel object recognition task; type: in vivo, Sprague-Dawley rats
Experimental: The effect of the exemplary histone deacetylase inhibitor sodium butyrate (NaB) on the exemplary hippocampus-dependent long-term memory paradigm of novel object recognition was determined. In the novel object task, an animal's ability to discriminate between a familiar and a novel object is tested. Novel object recognition training is performed over 4 consecutive days. During each day, animals are placed individually into a small holding cage prior to introduction to the training arena (44 cm^2). The first day consists of habituating animals to the training arena for 10 min. During the second and third days, the training arena has 8 small Duplo® Blocks (Lego®, 2 each: yellow, blue, red, green) placed 2 cm from the edge of the arena. During days 2 and 3, animals are simultaneously habituated to the Duplo blocks and tested for color and arena-position biases. On day 4, 2 distinct novel objects made from Duplo blocks (approx. 10×5×5 cm) are placed in opposite corners of the arena, 2 cm from the walls. Animals are allowed to explore the objects for 10 min. During each session in the arena, movement of the animal will be tracked by an automated video-based system (Limelight) and the arena and Duplo blocks are thoroughly rinsed with 10% EtOH to remove any scent cues left by subjects. During the final training session on day 4, exploration time of each object is tracked. […] Novel object recognition is assessed by calculating preference indices ([TimeNovel−TimeFamilar]) after exposure of animals to one familiar, and one novel object. Animals received an injection of either saline or NaB 45 min before the training session on day 4.

[5] = test system: survival motor neuron (SMN) protein; conditions: SMA lymphoid cell lines; Chang et al. (2001); cited from earlier work
SMA-like mice = conditions: Chang et al. (2001), cited from earlier work
[6] = Contextual fear conditioning, freezing behavior; conditions: for spontaneous freezing behavior on re-exposure 24 h after mock training, no shock (FIG. 11D): sodium butyrate 1.2 g/kg vs saline; for spontaneous freezing behavior during mock training, no shock (FIG. 11C): sodium butyrate 1.2 g/kg, 3 min in training chamber
[7] = 100 μM NMDA in Mg++-free ACSF for 10 min
[8] = NaB 1.2 g/kg 45 min prior to training
[9] = NaB 45 min before the training session on day 4, vs saline
[10] = sodium butyrate 1.2 g/kg 1 h prior to 1-shock contextual fear conditioning, vs saline
[11] = sodium butyrate 1.2 g/kg 1 h prior to 1-shock contextual fear conditioning, vs saline, listed as NaB
[12] = slices exposed to NaB for 40 min, data not shown

CCCCCCCCCC(=O)O[C@@H]1[C@@H](C)[C@@]2(O)[C@@H](C=C(CO)C[C@@]3(O)C(=O)C(C)=C[C@@H]23)[C@@H]2C(C)(C)[C@]12OC(=O)CCCCCCCCC [4αP, 4-α-phorbol 12,13-didecanoate]
levels of P-ERK2 (ERK2): no effect on P-ERK2 | levels of P-ERK2 (ERK2; listed as 4 αP): no affect | levels of P-ERK1 (ERK1): no affect | histone H3 acetylation (histone H3 (Lys14)): no effect on H3 acetylation | histone H3 acetylation (histone H3 (Lys14); listed as 4 αP): no affect on the acetylation of histone H3

OC[C@H]1O[C@@H](n2cnc3cc(Cl)c(Cl)cc32)[C@H](O)[C@@H]1O [DRB, 5,6-dichlorobenzimidazole riboside]
basal synaptic transmission [1]: no effect on basal synaptic transmission

CN[C@H](CC(=O)O)C(=O)O [NMDA]
phosphorylation of ERK2 in area CA1 (ERK2; [7]): induced significant increases in P-ERK2; also recorded: significantly increased | acetylation of histone H3 in area CA1 (histone H3 (Lys14); [7]): increased acetylation of histone H3; also recorded: significantly increased | acetylation of histone H4 in area CA1 ([2]; 100 μM NMDA 10 min, with or without U0126 or PD98059 pretreatment): no affect on acetylation of histone H4

COc1cccc(-c2cc(=O)c3ccccc3o2)c1N [PD98059]
effect of NMDA on P-ERK2 after pretreatment with MEK inhibitor (ERK2): blocked; also recorded: inhibited the affect of NMDA on P-ERK2 | effect of FSK on P-ERK2 after pretreatment with MEK inhibitor (ERK2): blocked | effect of PDA on P-ERK2 after pretreatment with MEK inhibitor (ERK2): blocked | levels of P-ERK2 (ERK2): diminished | effect of NMDA on acetylation of histone H3 after pretreatment with MEK inhibitor (histone H3 (Lys14)): blocked; also recorded: inhibited the affect of NMDA on acetylation of histone H3 | effect of FSK on histone H3 acetylation after pretreatment with MEK inhibitor (histone H3 (Lys14)): blocked; also recorded: inhibited | effect of PDA on histone H3 acetylation after pretreatment with MEK inhibitor (histone H3 (Lys14)): blocked; also recorded: inhibited | histone H3 acetylation (histone H3 (Lys14)): no effect on basal levels of acetylation of histone H3

CC(=O)O[C@@H]1[C@@H](C)[C@@]2(O)[C@@H](C=C(CO)C[C@]3(O)C(=O)C(C)=C[C@@H]23)[C@@H]2C(C)(C)[C@]12OC(C)=O [PDA, phorbol 12,13-diacetate]
levels of P-ERK2 (ERK2): significantly increased; also recorded: significant increases in levels of P-ERK2 | levels of P-ERK1 (ERK1): significantly increased | histone H3 acetylation (histone H3 (Lys14)): significantly increased acetylation of histone H3

N#CC(=C(/N)Sc1ccccc1N)/C(C#N)=C(\N)Sc1ccccc1N [U0126]
effect of NMDA on P-ERK2 after pretreatment with MEK inhibitor (ERK2): blocked; also recorded: inhibited the affect of NMDA on P-ERK2 | effect of FSK on P-ERK2 after pretreatment with MEK inhibitor (ERK2): blocked | effect of PDA on P-ERK2 after pretreatment with MEK inhibitor (ERK2): blocked | levels of P-ERK2 (ERK2): diminished | effect of NMDA on acetylation of histone H3 after pretreatment with MEK inhibitor (histone H3 (Lys14)): blocked; also recorded: inhibited the affect of NMDA on acetylation of histone H3 | effect of FSK on histone H3 acetylation after pretreatment with MEK inhibitor (histone H3 (Lys14)): blocked; also recorded: inhibited | effect of PDA on histone H3 acetylation after pretreatment with MEK inhibitor (histone H3 (Lys14)): blocked; also recorded: inhibited | histone H3 acetylation (histone H3 (Lys14)): no effect on basal levels of acetylation of histone H3

Cc1c2oc3c(C)ccc(C(=O)N[C@@H]4C(=O)N[C@H](C(C)C)C(=O)N5CCC[C@H]5C(=O)N(C)CC(=O)N(C)[C@@H](C(C)C)C(=O)O[C@@H]4C)c3nc-2c(C(=O)N[C@@H]2C(=O)N[C@H](C(C)C)C(=O)N3CCC[C@H]3C(=O)N(C)CC(=O)N(C)[C@@H](C(C)C)C(=O)O[C@@H]2C)c(N)c1=O [actinomycin D, Actinomycin D] (I: T[dV]P[Sar][NMeV] / II: T[dV]P[Sar][NMeV]; ester I:1-I:C, II:1-II:C; linker I:N-II:N via Actinocin(9to1))
basal synaptic transmission [1]: no effect on synaptic transmission

C=C[C@@]1(C)CC(=O)[C@@H]2[C@@]3(C)CCCC(C)(C)[C@@H]3[C@H](O)[C@H](OC(C)=O)[C@@]2(C)O1 [dFSK, 1,9 dideoxyforskolin]
levels of P-ERK2 (ERK2): no affect; also recorded: no effect on P-ERK2 | levels of P-ERK1 (ERK1): no affect | histone H3 acetylation (histone H3 (Lys14)): no affect on the acetylation of histone H3; also recorded: no effect on H3 acetylation

CCCC(=O)[O-].[Na+] [sodium butyrate]
input/output relationships [3]: No significant differences | paired-pulse facilitation [3]: unaffected | input/output relationships ([3]; listed as NaB): no significant affect on input/output relationships | paired-pulse facilitation ([3]; listed as NaB): no significant affect | passive avoidance memory (latency to enter dark side) 1 day after training (Passive avoidance task; [8]): did not affect long-term passive avoidance memory | passive avoidance memory (latency to enter dark side) 7 days after training (Passive avoidance task; [8]): significant affects on passive avoidance memory | passive avoidance memory (latency to enter dark side) 14 days after training (Passive avoidance task; [8]): significant affects on passive avoidance memory | long-term passive avoidance memory (Passive avoidance task; NaB 45 min prior to passive avoidance training, vs saline): enhances long-term passive avoidance memory | novel object recognition (preference index) 1 day after training [4, 9]: performed significantly better than animals that received saline | novel object recognition (preference index) 7 days after training [4, 9]: performed significantly better than animals that received saline | novel object recognition (preference index) day 14 [4, 9]: A trend for enhanced performance | long-term novel object recognition memory ([4]; NaB 45 min prior to novel object training, vs saline): enhances long-term novel object recognition memory | amount of exon 7-containing SMN protein [5]: effective at increasing the amount of exon 7-containing survival motor neuron (SMN) protein | expression of SMN protein in spinal cord motor neurons (SMA-like mice; SMA-like mice): increased expression of SMN protein in spinal cord motor neurons | symptoms (SMA-like mice; SMA-like mice): improved symptoms | birth rate of severe types of SMA-like mice (SMA-like mice; heterozygous knock-out transgenic SMA-like mice bred): decreased the birth rate of severe types of SMA-like mice | freezing behavior during training (FIG. 11A) [6, 10]: unaffected | freezing behavior during training (FIG. 11E, short-term memory study) [6, 10]: unaffected | freezing behavior on re-exposure to the training chamber 24 h after training (FIG. 11B) [6, 10]: significantly more freezing behavior than animals injected with saline | freezing behavior during training (FIG. 11A) [6, 11]: no affect on freezing behavior observed during training | freezing behavior during training (FIG. 11E, short-term memory study) [6, 11]: no significant differences were seen in freezing behavior | freezing behavior on re-exposure 1 h after training, short-term memory (FIG. 11F) [6, 11]: no effect on freezing behavior | spontaneous freezing behavior on re-exposure 24 h after mock training, no shock (FIG. 11D) [6]: no affect on spontaneous freezing behavior | spontaneous freezing behavior on re-exposure 24 h after mock training, no shock (FIG. 11D) ([6]; listed as NaB): no significant differences in the amount of freezing behavior | spontaneous freezing behavior during mock training, no shock (FIG. 11C) ([6]; vs saline): unaffected | spontaneous freezing behavior during mock training, no shock (FIG. 11C) ([6]; vs saline, listed as NaB): no acute effects on freezing behavior | acetylation of histone H3 (histone H3 (Lys14); [12]): elevated | acetylation of histone H4 [2, 12]: elevated
